# According to PubChem BioAssay AID248 (DTP/NCI, 2004):
# Several values for one entry are separate records, joined by “and”; a condition that tells them apart may be missing. Equal values may be shown once. Inconclusive results and toxic doses are left out.
# Tested on: L1210 leukemia ip in BDF1 mice, survival T/C
# Test: NCI In Vivo Anticancer Drug Screen. Data for tumor model L1210 Leukemia (intraperitoneal) in B6D2F1 (BDF1) mice
# Conditions: endpoint: mean survival time, higher = longer survival
# Outline: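 Transplanted-tumor mice were given test agent; controls received vehicle only. Survival readings from the two groups were divided (treated over control).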
# [1] = dose: 50.0 mg/kg/injection, schedule: Q01DX001 (ip), vehicle: saline
# [2] = dose: 100.0 mg/kg/injection, schedule: Q01DX001 (ip), vehicle: saline
# [3] = dose: 400.0 mg/kg/injection, schedule: Q01DX001 (ip), vehicle: saline
# [4] = dose: 100.0 mg/kg/injection, schedule: Q01DX009 (ip), vehicle: saline with Tween-80
# [5] = dose: 200.0 mg/kg/injection, schedule: Q01DX009 (ip), vehicle: saline with Tween-80
# [6] = dose: 50.0 mg/kg/injection, schedule: Q01DX001 (ip), vehicle: Klucel (hydroxypropylcellulose) (HPC)
# [7] = dose: 100.0 mg/kg/injection, schedule: Q01DX001 (ip), vehicle: Klucel (hydroxypropylcellulose) (HPC)
# [8] = dose: 200.0 mg/kg/injection, schedule: Q01DX001 (ip), vehicle: Klucel (hydroxypropylcellulose) (HPC)
# [9] = dose: 100.0 mg/kg/injection, schedule: Q04DX003 (ip), vehicle: carboxymethylcellulose (CMC)
# [10] = dose: 200.0 mg/kg/injection, schedule: Q04DX003 (ip), vehicle: carboxymethylcellulose (CMC)
# [11] = dose: 400.0 mg/kg/injection, schedule: Q04DX003 (ip), vehicle: carboxymethylcellulose (CMC)
# [12] = dose: 50.0 mg/kg/injection, schedule: Q04DX003 (ip), vehicle: Klucel (hydroxypropylcellulose) (HPC)
# [13] = dose: 100.0 mg/kg/injection, schedule: Q04DX003 (ip), vehicle: Klucel (hydroxypropylcellulose) (HPC)
# [14] = dose: 400.0 mg/kg/injection, schedule: Q04DX003 (ip), vehicle: Klucel (hydroxypropylcellulose) (HPC)
# [15] = dose: 200.0 mg/kg/injection, schedule: Q04DX003 (ip), vehicle: Klucel (hydroxypropylcellulose) (HPC)
smiles,measurement,setting,value
CCCCC(=O)OCC1OC(n2cnc3c(=S)nc[nH]c32)C(OC(=O)CCCC)C1OC(=O)CCCC (stereo unspecified),T/C,"dose: 50.0 mg/kg/injection, schedule: Q01DX015 (ip), vehicle: carboxymethylcellulose (CMC)",151 % of control
same,T/C,"dose: 50.0 mg/kg/injection, schedule: Q01DX Z (ip), vehicle: carboxymethylcellulose (CMC)",117 % of control
same,T/C,"dose: 100.0 mg/kg/injection, schedule: Q01DX015 (ip), vehicle: carboxymethylcellulose (CMC)",172 % of control
same,T/C,"dose: 200.0 mg/kg/injection, schedule: Q01DX Z (ip), vehicle: carboxymethylcellulose (CMC)",161 % of control
same,T/C,"dose: 400.0 mg/kg/injection, schedule: Q01DX Z (ip), vehicle: carboxymethylcellulose (CMC)",87 % of control
C[n+]1cccc(C=O)c1,T/C,"dose: 100.0 mg/kg/injection, schedule: Q01DX009 (ip), vehicle: saline",100 % of control
same,T/C,"dose: 200.0 mg/kg/injection, schedule: Q01DX009 (ip), vehicle: saline",101 % of control
same,T/C,"dose: 400.0 mg/kg/injection, schedule: Q01DX009 (ip), vehicle: saline",100 % of control
O=C(CCCC(=O)N/N=C/c1ccccc1O)N/N=C\c1ccccc1O,T/C,[1],87 % of control
same,T/C,[2],90 % of control
same,T/C,[3],90 % of control
O=C(/C=C/c1ccccc1)CC(=O)c1ccccc1.O=C(/C=C/c1ccccc1)CC(=O)c1ccccc1.[Cu],T/C,[1],94 % of control
same,T/C,[2],91 % of control
same,T/C,"dose: 200.0 mg/kg/injection, schedule: Q01DX001 (ip), vehicle: saline",91 % of control
same,T/C,[3],97 % of control
O=C(Nc1nccs1)Nc1ccc(Cl)cc1Cl,T/C,"dose: 50.0 mg/kg/injection, schedule: Q01DX009 (ip), vehicle: saline with Tween-80",91 % of control
same,T/C,[4],98 % of control
same,T/C,[5],109 % of control
O=NN(CCF)C(=O)Nc1c[nH]c(=O)[nH]c1=O,T/C,"dose: 20.0 mg/kg/injection, schedule: Q01DX001 (ip), vehicle: carboxymethylcellulose (CMC)",178 % of control
C/C=C(\C)c1cc(=O)c2c(C)cc3c(c2o1)C(=O)c1c(O)c(C2CC(C)(N(C)C)C(O)C(C)O2)cc(C2CC(N(C)C)C(O)C(C)O2)c1C3=O (stereo unspecified),T/C,"dose: 100.0 mg/kg/injection, schedule: Q01DX001 (ip), vehicle: saline with Tween-80",120 % of control
same,T/C,"dose: 200.0 mg/kg/injection, schedule: Q01DX001 (ip), vehicle: saline with Tween-80",114 % of control
CCOC(=O)CSc1nc(N)cc(=O)[nH]1,T/C,[6],110 % of control
same,T/C,[7],117 % of control
same,T/C,[8],110 % of control
CC(=O)N(c1ccccc1)c1nc(CCl)cs1,T/C,"dose: 100.0 mg/kg/injection, schedule: Q01DX001 (ip), vehicle: carboxymethylcellulose (CMC)",100 % of control
same,T/C,"dose: 100.0 mg/kg/injection, schedule: Q01DX009 (ip), vehicle: carboxymethylcellulose (CMC)",88 % of control
same,T/C,"dose: 100.0 mg/kg/injection, schedule: Q04DX002 (ip), vehicle: carboxymethylcellulose (CMC)",97 % of control and 100 % of control
same,T/C,[9],100 % of control
same,T/C,"dose: 200.0 mg/kg/injection, schedule: Q01DX001 (ip), vehicle: carboxymethylcellulose (CMC)",108 % of control
same,T/C,"dose: 200.0 mg/kg/injection, schedule: Q01DX009 (ip), vehicle: carboxymethylcellulose (CMC)",98 % of control and 89 % of control
same,T/C,"dose: 200.0 mg/kg/injection, schedule: Q04DX002 (ip), vehicle: carboxymethylcellulose (CMC)",95 % of control and 103 % of control
same,T/C,[10],102 % of control
same,T/C,"dose: 400.0 mg/kg/injection, schedule: Q01DX001 (ip), vehicle: carboxymethylcellulose (CMC)",93 % of control
same,T/C,"dose: 400.0 mg/kg/injection, schedule: Q01DX009 (ip), vehicle: carboxymethylcellulose (CMC)",98 % of control and 103 % of control
same,T/C,"dose: 400.0 mg/kg/injection, schedule: Q04DX002 (ip), vehicle: carboxymethylcellulose (CMC)",100 % of control and 102 % of control
same,T/C,[11],104 % of control
CCO/C=C1\SC(=S)N(c2ccccc2OC)C1=O,T/C,[4],102 % of control
same,T/C,[5],104 % of control
same,T/C,"dose: 400.0 mg/kg/injection, schedule: Q01DX009 (ip), vehicle: saline with Tween-80",106 % of control
CCCOC(=O)C1(N)CCCC1,T/C,"dose: 16.0 mg/kg/injection, schedule: Q01DX Z (ip), vehicle: carboxymethylcellulose (CMC)",117 % of control
same,T/C,"dose: 31.0 mg/kg/injection, schedule: Q01DX Z (ip), vehicle: carboxymethylcellulose (CMC)",119 % of control
same,T/C,"dose: 45.0 mg/kg/injection, schedule: Q01DX Z (ip), vehicle: saline",114 % of control
same,T/C,[6],98 % of control
same,T/C,[12],103 % of control
same,T/C,"dose: 62.0 mg/kg/injection, schedule: Q01DX Z (ip), vehicle: carboxymethylcellulose (CMC)",120 % of control
same,T/C,[7],106 % of control
same,T/C,"dose: 100.0 mg/kg/injection, schedule: Q01DX Z (ip), vehicle: saline",121 % of control
same,T/C,[13],117 % of control
same,T/C,"dose: 148.0 mg/kg/injection, schedule: Q01DX Z (ip), vehicle: saline",160 % of control
same,T/C,"dose: 150.0 mg/kg/injection, schedule: Q01DX Z (ip), vehicle: saline",114 % of control
same,T/C,[8],117 % of control and 118 % of control
same,T/C,"dose: 336.0 mg/kg/injection, schedule: Q01DX Z (ip), vehicle: saline",110 % of control
same,T/C,[14],121 % of control
same,T/C,"dose: 500.0 mg/kg/injection, schedule: Q01DX Z (ip), vehicle: carboxymethylcellulose (CMC)",89 % of control
same,T/C,"dose: 504.0 mg/kg/injection, schedule: Q01DX Z (ip), vehicle: saline",116 % of control
CC(=O)Nc1ccc(C#N)c2ccccc12,T/C,"dose: 100.0 mg/kg/injection, schedule: Q01DX009 (ip), vehicle: Klucel (hydroxypropylcellulose) (HPC)",97 % of control
same,T/C,[13],102 % of control
same,T/C,"dose: 200.0 mg/kg/injection, schedule: Q01DX009 (ip), vehicle: Klucel (hydroxypropylcellulose) (HPC)",98 % of control
same,T/C,[15],102 % of control
same,T/C,"dose: 400.0 mg/kg/injection, schedule: Q01DX009 (ip), vehicle: Klucel (hydroxypropylcellulose) (HPC)",103 % of control
same,T/C,[14],97 % of control
CCOC(=O)C(CCC#N)(CCC#N)C(C)=O,T/C,[13],105 % of control
same,T/C,[15],94 % of control
CCOC(=O)c1c(N)sc2c1CCCC2,T/C,"dose: 100.0 mg/kg/injection, schedule: Q01DX009 (ip), vehicle: saline sonified",102 % of control
same,T/C,"dose: 100.0 mg/kg/injection, schedule: Q04DX003 (ip), vehicle: saline with Tween-80",95 % of control
same,T/C,"dose: 200.0 mg/kg/injection, schedule: Q01DX009 (ip), vehicle: saline sonified",89 % of control
same,T/C,"dose: 200.0 mg/kg/injection, schedule: Q04DX003 (ip), vehicle: saline with Tween-80",103 % of control
same,T/C,"dose: 400.0 mg/kg/injection, schedule: Q01DX009 (ip), vehicle: saline sonified",105 % of control
same,T/C,"dose: 400.0 mg/kg/injection, schedule: Q04DX003 (ip), vehicle: saline with Tween-80",97 % of control
CCCCCCCCCCCC[N+](C)(C)C.C[As](C)(=O)[O-],T/C,"dose: 6.25 mg/kg/injection, schedule: Q01DX009 (ip), vehicle: saline",101 % of control
same,T/C,"dose: 12.5 mg/kg/injection, schedule: Q01DX009 (ip), vehicle: saline",101 % of control
same,T/C,"dose: 25.0 mg/kg/injection, schedule: Q01DX009 (ip), vehicle: saline",97 % of control and 101 % of control
CS(=O)(=O)N(c1nc2ccccc2s1)S(C)(=O)=O,T/C,[9],95 % of control
same,T/C,[10],93 % of control
same,T/C,[11],95 % of control
CN(C)CCC(CCC(=O)O)(C(=O)O)c1ccccc1 (stereo unspecified),T/C,"dose: 75.0 mg/kg/injection, schedule: Q01DX001 (ip), vehicle: saline",98 % of control
same,T/C,"dose: 150.0 mg/kg/injection, schedule: Q01DX001 (ip), vehicle: saline",96 % of control
same,T/C,"dose: 300.0 mg/kg/injection, schedule: Q01DX001 (ip), vehicle: saline",90 % of control
Clc1ccccc1C(=Nc1ccccc1)C(=Nc1ccccc1)c1ccccc1Cl,T/C,"dose: 12.5 mg/kg/injection, schedule: Q01DX001 (ip), vehicle: Klucel (hydroxypropylcellulose) (HPC)",106 % of control
same,T/C,"dose: 25.0 mg/kg/injection, schedule: Q01DX001 (ip), vehicle: Klucel (hydroxypropylcellulose) (HPC)",102 % of control
same,T/C,"dose: 25.0 mg/kg/injection, schedule: Q04DX003 (ip), vehicle: Klucel (hydroxypropylcellulose) (HPC)",90 % of control
same,T/C,[6],106 % of control
same,T/C,[12],92 % of control
same,T/C,[7],88 % of control
same,T/C,[13],87 % of control
same,T/C,"dose: 400.0 mg/kg/injection, schedule: Q01DX001 (ip), vehicle: Klucel (hydroxypropylcellulose) (HPC)",90 % of control
